# Paper PMC9503459, “Antifungal Activity, Structural Stability, and Immunomodulatory Effects on Human Immune Cells of Defensin from the Lentil Lens culinaris” (Membranes, 2022)
# “And” between values parts separate entries of the source, which are not always exact repeats. Equal entries are not always repeated. No end group written: not given here.
# Columns and labels:
# [1] = system: pepsin, trypsin, α-chymotrypsin; test: Simulated gastrointestinal digestion in vitro; format: in vitro ADME, porcine pepsin and trypsin, bovine α-chymotrypsin
# Source text: Digestive enzymes (porcine pepsin and trypsin, bovine α-chymotrypsin), model protein substrate bovine α-casein, and secondary anti-rabbit IgG polyclonal goat antibodies conjugated to HRP and 3,3′,5,5′-tetramethylbenzidine (TMB) substrates were purchased from Sigma-Aldrich (St. Louis, MO, USA). Synthetic lysophospholipids (lyso-palmitoyl phosphatidylcholine (LPPC), lyso-palmitoyl phosphatidylglycerol (LPPG)) were purchased from Avanti Polar Lipids (Alabaster, AL, USA).
# Sensitivity of Lc-def to digestive enzymes was examined by simulation of its gastrointestinal digestion in vitro. Gastric digestion was performed for 2 h, using 50 ng of pepsin per 1 μg of preheated at 100 °C for 30 min and intact Lc-def in 0.1 M HCl, pH 2.0. For duodenal digestion, the pH of the mixture resulting from gastric digestion was adjusted to 8.0 by addition of ammonium bicarbonate. The obtained mixture was incubated for 24 h at 37 °C with 2.5 ng of trypsin and 10 ng of α-chymotrypsin per 1 μg of the defensin. The degree of proteolysis was monitored by SDS-PAGE and RP-HPLC. Gel analysis was performed using Gel Doc XR^+ imaging system (Bio-Rad, Hercules, CA, USA) and Image Lab Software v.6.1.0 (Bio-Rad, Hercules, CA, USA). Some independent experiments were performed in each case. The experiment with α-casein was carried out for comparison.
# [2] = system: regulatory CD4+ FoxP3+ T cells (Tregs); test: Cytokine response by multiplex xMAP, Tregs; format: cell-based, human; details: CD4+CD25+ Tregs, 2 µM, 24 h
# Procedure: Colorectal adenocarcinoma Caco-2 cell line (ATCC HTB-37) was cultured in complete DMEM/F12 (1:1) medium containing 10% fetal bovine serum (FBS, Gibco) and 1X antibiotic-antimycotic solution (1XAAS, Invitrogen, Waltham, MA, USA). The acute monocytic leukemia THP-1 line (ATCC TIB-202) was cultured in complete RPMI-1640 medium, containing 10% FBS, 1XAAS, and […]. THP-1 cells were differentiated into pro-inflammatory macrophages (Mφ1) with phorbol 12-myristate 13-acetate (Sigma-Aldrich) for 24 h and subsequently polarized with lipopolysaccharide from E. coli (Sigma-Aldrich) and rhIFN-γ (Sigma-Aldrich) for another 48 h according to previously reported protocol. All cells were cultured in a humidified CO2 incubator (5% CO2, 37 °C). Primary peripheral blood mononuclear cells (PBMCs) collected from a healthy donor were purchased from American Type Culture Collection (ATCC PCS-800-011). CD4^+ T-helper and CD8^+ T cytotoxic cells were isolated from PBMCs by magnetic separation with mouse anti-human CD4-PE (clone 13B8.2, Beckman Coulter Diagnostics, Pasadena, CA, USA) and CD8-PE (clone REA734, Miltenyi Biotec, Bergisch Gladbach, Germany), Anti-PE MicroBeads (Miltenyi Biotec), and LS Separation Columns (Miltenyi Biotec). Isolated CD4^+ and CD8^+ cells were expanded separately with Dynabeads™ Human T-Expander CD3/CD28 (Gibco, Waltham, MA, USA) in RPMI-1640 supplemented with 10% FBS, 1XAAS and 100 U/mL rh-IL-2 (Gibco). Regulatory CD4^+ FoxP3^+ T cells (Tregs) were isolated from PBMCs by magnetic separation with CD4^+CD25^+ Regulatory T Cell Isolation Kit, human (Miltenyi Biotec). Primary CD14^+ blood monocytes were isolated from PBMCs by adherence according to standard technique. Monocyte-derived mature dendritic cells (moDCs) were obtained from CD14^+ blood monocytes according to the previously reported protocol. Briefly, blood monocytes were incubated in complete RPMI-1640 medium, containing 10% FBS, 1XAAS, 800 U/mL rhGM-CSF (Sci-Store, Russia, Moscow) and 500 U/mL rhIL-4 (Sci-Store) for 3 days. Fresh complete RPMI-1640 medium with rhGM-CSF and rhIL-4 was added to the culture on day 3. On day 5, fresh complete RPMI-1640 containing 100 U/mL rhTNF-α (Sigma) as well as 800 U/mL rhGM-CSF and 500 U/mL rhIL-4 was added and the culture was incubated for another 4 days until full maturation.
# Caco-2 cells were seeded into the wells of a 48-well plate, coated with 0.1% bovine collagen (Sigma-Aldrich) for 24 h, 3 weeks before the experiment with complete DMEM/F12 (1:1) medium renewal every 2–3 days. Monocytes, moDCs, CD4^+ T-helper and CD8^+ T cytotoxic cells, Mφ1, and Regulatory CD4^+ FoxP3^+ T cells were seeded into the wells of 48-well plates in the complete RPMI-1640 medium supplemented with 10% Human AB serum (HABS, Capricorn Scientific, Ebsdorfergrund, Germany) and 1XAAS 24 h prior to the experiment; medium in Caco-2-containing wells was also replaced with the same medium. After 24 h, half of the medium in each well was replaced by fresh complete RPMI-1640 medium with 10% HABS, supplemented with 4 µM of Lc-def for the sample wells or fresh medium alone for the control wells. Cell cultures were kept in CO2-incubator (5% CO2, 37 °C) for another 24 h. Culture supernatants were collected 24 h later and stored at −70 °C degrees less than one month prior to the analytes assessment. […]
substance,measurement,setting,value
"Lc-def: defensin from lentil Lens culinaris seeds (UniProt:B3F051), recombinant, overexpressed in Escherichia coli (KTCENLSDSFKGPCIPDGNCNKHCKEKEHLLSGRCRDDFRCWCTRNC; disulfide (positions not given here); ends not checked; also: disulfide bonds present, pairing not given here; UniProt B3F051 28-74, looked up)",degradation after gastrointestinal digestion,[1],approximately 30%
same,EGF,[2],4.15 pg/mL
same,Eotaxin,[2],<3.23↓ pg/ml
same,FGF-2,[2],34.19 pg/mL
same,FLT-3L,[2],0.62 pg/mL
same,Fractalkine,[2],<23.19↓ pg/ml
same,G-CSF,[2],9.93 pg/mL
same,GM-CSF,[2],54.75 pg/mL
same,GROa,[2],29.97 pg/mL
same,IFNa2,[2],<4.43↓ pg/ml
same,IFNg,[2],38.55 pg/mL
same,IL-1RA,[2],1.04 pg/mL
same,IL-1a,[2],19.36 pg/mL
same,IL-1b,[2],<18.72↓ pg/ml
same,IL-2,[2],4.82 pg/mL
same,IL-3,[2],<0.48↓ pg/ml
same,IL-4,[2],<0.31↓ pg/ml
same,IL-5,[2],<0.24↓ pg/ml
same,IL-6,[2],317 pg/mL and 317.05 pg/mL
same,IL-7,[2],<0.33↓ pg/ml
same,IL-8,[2],1247 pg/mL
same,IL-9,[2],5.08 pg/mL
same,IL-10,[2],42.25 pg/mL
same,IL-12 (p40),[2],19.56 pg/mL
same,IL-12 (p70),[2],3.39 pg/mL
same,IL-13,[2],7.95 pg/mL
same,IL-15,[2],<1.45↓ pg/ml
same,IL-17A,[2],2.6 pg/mL
same,IL-17E/IL-25,[2],<20.59↓ pg/ml
same,IL-17F,[2],51.91 pg/mL
same,IL-18,[2],0.56 pg/mL
same,IL-22,[2],24.29 pg/mL
same,IL-27,[2],84.77 pg/mL
same,IP-10,[2],114.68 pg/mL
same,M-GSF,[2],<23.75↓ pg/ml
same,MCP-1,[2],505 pg/mL and 505.45 pg/mL
same,MCP-3,[2],21.04 pg/mL
same,MDC,[2],968.96 pg/mL
same,MIG,[2],479.53 pg/mL
same,MIP-1a,[2],233 pg/mL and 233.56 pg/mL
same,MIP-1b,[2],313.49 pg/mL
same,PDGF-AA,[2],<7.38↓ pg/ml
same,PDGF-AB/BB,[2],119.45 pg/mL
same,RANTES,[2],12.31 pg/mL
same,TGF-a,[2],1.25 pg/mL
same,TNFa,[2],97.83 pg/mL
same,TNFb,[2],2.32 pg/mL
same,VEGFa,[2],<1.27↓ pg/ml
same,sCD40L,[2],66.54 pg/mL
